Source: PMC11673057, “Unlocking Testosterone Production by Biotransformation: Engineering a Fungal Model of Aspergillus nidulans Strain Deficient in Steroid 11α-Hydroxylase Activity and Expressing 17β-Hydroxysteroid Dehydrogenase Enzyme as Proof of Concept” (Biomolecules, 2024)

Biological target: CYP68L1 (hydAN), steroid 11α-hydroxylase (Aspergillus nidulans, UniProt A0A6J3WXY1)
Test: whole-cell fermentation of knockout strain expressing enzyme, HPLC
Format: cell-based
Conditions: 32 °C, 72 h; 11alpha-hydroxylation

Chain of CYP68L1 (hydAN), steroid 11α-hydroxylase (A0A6J3WXY1 entry or part of it): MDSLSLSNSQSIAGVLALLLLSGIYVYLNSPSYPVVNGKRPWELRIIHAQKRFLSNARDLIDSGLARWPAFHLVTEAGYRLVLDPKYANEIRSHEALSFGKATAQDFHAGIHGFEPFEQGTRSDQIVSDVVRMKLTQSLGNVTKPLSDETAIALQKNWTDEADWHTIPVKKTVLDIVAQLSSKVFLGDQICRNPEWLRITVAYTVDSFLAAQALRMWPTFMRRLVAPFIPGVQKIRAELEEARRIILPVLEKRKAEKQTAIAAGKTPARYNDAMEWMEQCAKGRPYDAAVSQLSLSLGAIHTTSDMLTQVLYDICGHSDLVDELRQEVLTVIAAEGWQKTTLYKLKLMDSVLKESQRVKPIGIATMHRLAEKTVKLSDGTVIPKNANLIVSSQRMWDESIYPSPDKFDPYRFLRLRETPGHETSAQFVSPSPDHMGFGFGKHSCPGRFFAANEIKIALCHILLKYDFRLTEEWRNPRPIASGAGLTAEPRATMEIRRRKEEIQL

C[C@]12CCC(=O)C=C1CC[C@@H]1[C@@H]2CC[C@]2(C)C(=O)CC[C@@H]12 [AD, androstenedione]
whole-cell fermentation of knockout strain expressing enzyme, HPLC: Hydroxylase activity was restored by expressing the hydAN gene encoding this CYP450 in the KOhydAN strain
